Measured values as given in patent US12708649B2, “Compositions and methods for improving skin health and for the treatment and prevention of diseases, disorders and conditions associated with fungi and other pathogenic microbes” (priority 2020, dated 2026).
Values after ≈ are worked out from the molar mass of the structure shown. Like-named read-outs stand apart in the source and are kept apart here.

How the values were obtained:
[1] = system: DB05646; assay: Antibiotic MIC tests; type: cell-based, Alcaligenes faecalis; details: for MIC: Alcaligenes faecalis
[2] = system: DB02473; assay: Antibiotic MIC tests; type: cell-based
[3] = system: DB00376; assay: Antibiotic MIC tests; type: cell-based
[4] = system: DB10033; assay: Antibiotic MIC tests; type: cell-based, Bacillus altitudinis; details: for MIC: Bacillus altitudinis
[5] = system: E. coli ATCC 25922; details: MIC; cited from earlier work
[6] = 24 h, read-out: MIC, DB05646 24 hr
[7] = 48 h, read-out: MIC, DB05646 48 hr
[8] = 24 h; read-out: MIC, DB02473 24 hr
[9] = 24 h, read-out: MIC, DB00376 24 hr
[10] = 48 h, read-out: MIC, DB00376 48 hr
[11] = 24 h, read-out: MIC, DB10033 24 hr
[12] = 48 h, read-out: MIC, DB10033 48 hr
[13] = 48 h; read-out: MIC, DB02473 48 hr

Compound	MIC [1, 6] [µg/mL]	MIC [1, 7] [µg/mL]	MIC [2, 8] [µg/mL]	MIC [3, 9] [µg/mL]	MIC [3, 10] [µg/mL]	MIC [4, 11] [µg/mL]	MIC [4, 12] [µg/mL]	MIC ([2]; 24 h, read-out: MIC, DB02473 24 hr) [µg/mL]	MIC ([2]; 48 h, read-out: MIC, DB02473 48 hr) [µg/mL]	MIC, DB05646 24 hr [1] [µg/mL]	MIC, DB05646 48 hr [1] [µg/mL]	MIC, DB02473 24 hr ([2]; 24 hr) [µg/mL]	MIC, DB02473 48 hr ([2]; 48 hr) [µg/mL]	MIC, DB00376 24 hr [3] [µg/mL]	MIC, DB00376 48 hr [3] [µg/mL]	MIC, DB10033 24 hr [4] [µg/mL]	MIC, DB10033 48 hr [4] [µg/mL]	MIC [2, 13] [µg/mL]	E. coli ATCC 25922 CLSI QC Range [5]
C[C@H]1COc2c(N3CCN(C)CC3)c(F)cc3c(=O)c(C(=O)O)cn1c23 [Levofloxacin]	1 (≈ 2.77 µM)	1 (≈ 2.77 µM)	≤ 0.06	≤ 0.06	0.125 (≈ 0.346 µM)	≤ 0.06	0.125 (≈ 0.346 µM)												
O=C(N[C@H](CO)[C@H](O)c1ccc([N+](=O)[O-])cc1)C(Cl)Cl [Chloramphenicol]	8 (≈ 24.8 µM)	16 (≈ 49.5 µM)		2 (≈ 6.19 µM)	8 (≈ 24.8 µM)	2 (≈ 6.19 µM)	4 (≈ 12.4 µM)	4 (≈ 12.4 µM)	16 (≈ 49.5 µM)										
Neomycin										8	16	≤0.06	0.25	0.125	0.25	0.125	0.125		
CCC[C@@H]1C[C@@H](C(=O)N[C@@H]([C@H]2O[C@H](SC)[C@H](O)[C@@H](O)[C@H]2O)[C@H](C)Cl)N(C)C1 [Clindamycin]	> 64	> 64	0.5 (≈ 1.18 µM)	1 (≈ 2.35 µM)	4 (≈ 9.41 µM)	0.125 (≈ 0.294 µM)	2 (≈ 4.71 µM)											2 (≈ 4.71 µM)	
Polymyxin B										1	1	4	8	8	16	8	16		0.25 to 2 µg/mL
[H]/N=C(\N/C(=N/[H])NCCCCCCNC(=N)NC(=N)Nc1ccc(Cl)cc1)Nc1ccc(Cl)cc1 [Chlorhexidine]	32 (≈ 63.3 µM)	32 (≈ 63.3 µM)	1 (≈ 1.98 µM)	0.5 (≈ 0.989 µM)	1 (≈ 1.98 µM)	1 (≈ 1.98 µM)	2 (≈ 3.96 µM)												
CO/N=C(\C(=O)N[C@@H]1C(=O)N2C(C(=O)O)=C(CSc3nc(=O)c(=O)[nH]n3C)CS[C@H]12)c1csc(N)n1 [Ceftriaxone]	0.25 (≈ 0.451 µM)	0.25 (≈ 0.451 µM)	4 (≈ 7.21 µM)	2 (≈ 3.61 µM)	4 (≈ 7.21 µM)	16 (≈ 28.9 µM)	16 (≈ 28.9 µM)											16 (≈ 28.9 µM)	0.03 to 0.12 µg/mL
NCC[C@H](O)C(=O)N[C@@H]1C[C@H](N)[C@@H](O[C@H]2O[C@H](CN)[C@@H](O)[C@H](O)[C@H]2O)[C@H](O)[C@H]1O[C@H]1O[C@H](CO)[C@@H](O)[C@H](N)[C@H]1O [Amikacin]	4 (≈ 6.83 µM)	4 (≈ 6.83 µM)	0.25 (≈ 0.427 µM)	0.5 (≈ 0.854 µM)	1 (≈ 1.71 µM)	0.5 (≈ 0.854 µM)	2 (≈ 3.42 µM)											0.25 (≈ 0.427 µM)	0.5-4^ μg/mL
C[C@@H](O)[C@H]1C(=O)N2C(C(=O)O)=C(S[C@@H]3CN[C@H](C(=O)N(C)C)C3)[C@H](C)[C@H]12 [Meropenem]	≤ 0.06	≤ 0.06	≤ 0.06	≤ 0.06	≤ 0.06	≤ 0.06	0.125 (≈ 0.326 µM)											≤ 0.06	0.008 to 0.06 µg/mL
CC[C@H]1OC(=O)[C@H](C)[C@@H](O[C@H]2C[C@@](C)(OC)[C@@H](O)[C@H](C)O2)[C@H](C)[C@@H](O[C@@H]2O[C@H](C)C[C@H](N(C)C)[C@H]2O)[C@](C)(O)C[C@@H](C)CN(C)[C@H](C)[C@@H](O)[C@]1(C)O [Azithromycin]	2 (≈ 2.67 µM)	2 (≈ 2.67 µM)	0.5 (≈ 0.668 µM)	0.25 (≈ 0.334 µM)	1 (≈ 1.34 µM)	0.2 (≈ 0.267 µM)	0.2 (≈ 0.267 µM)												
C[C@H]1[C@H](NC(=O)/C(=N\OC(C)(C)C(=O)O)c2csc(N)n2)C(=O)N1S(=O)(=O)O [Aztreonam]	32 (≈ 73.5 µM)	32 (≈ 73.5 µM)	> 64	16 (≈ 36.7 µM)	> 64	> 64	> 64											> 64	0.06 to 0.25 µg/mL
O=C(O)c1cn(C2CC2)c2cc(N3CCNCC3)c(F)cc2c1=O [Ciprofloxacin]	2 (≈ 6.04 µM)	2 (≈ 6.04 µM)	≤ 0.06	0.0625 (≈ 0.189 µM)	0.5 (≈ 1.51 µM)	0.125 (≈ 0.377 µM)	1 (≈ 3.02 µM)											0.125 (≈ 0.377 µM)	
Povidone-iodine										>1024	>1024	>1024	>1024	>1024	>1024	>1024	>1024		
C/C(=C\C(=O)OCCCCCCCCC(=O)O)C[C@@H]1OC[C@H](C[C@@H]2O[C@H]2[C@@H](C)[C@H](C)O)[C@@H](O)[C@H]1O [Mupirocin]	64 (≈ 128 µM)	128 (≈ 256 µM)	≤ 1	2 (≈ 3.99 µM)	16 (≈ 32 µM)	8 (≈ 16 µM)	64 (≈ 128 µM)											≤ 1	
CC[C@H]1OC(=O)[C@H](C)[C@@H](O[C@H]2C[C@@](C)(OC)[C@@H](O)[C@H](C)O2)[C@H](C)[C@@H](O[C@@H]2O[C@H](C)C[C@H](N(C)C)[C@H]2O)[C@](C)(O)C[C@@H](C)C(=O)[C@H](C)[C@@H](O)[C@]1(C)O [Erythromycin]	16 (≈ 21.8 µM)	64 (≈ 87.2 µM)		0.125 (≈ 0.17 µM)	0.5 (≈ 0.681 µM)	≤ 0.06	≤ 0.06											0.125 (≈ 0.17 µM)	
Amoxicillin/Clavulanate (4:1)										32	32	≤0.06	≤0.06	≤0.06	≤0.06	≤0.06	≤0.06		
CN(C)[C@@H]1C(O)=C(C(N)=O)C(=O)[C@@]2(O)C(O)=C3C(=O)c4c(O)cccc4[C@@](C)(O)[C@H]3C[C@@H]12 [Tetracycline]	4 (≈ 9 µM)	16 (≈ 36 µM)		0.0625 (≈ 0.141 µM)															
CO/N=C(\C(=O)N[C@@H]1C(=O)N2C(C(=O)[O-])=C(C[N+]3(C)CCCC3)CS[C@H]12)c1csc(N)n1 [Cefepime]	4 (≈ 8.32 µM)	8 (≈ 16.6 µM)	2 (≈ 4.16 µM)	1 (≈ 2.08 µM)	64 (≈ 133 µM)	64 (≈ 133 µM)	64 (≈ 133 µM)											4 (≈ 8.32 µM)	0.016 to 0.12 µg/mL
CN(C)c1ccc(O)c2c1C[C@H]1C[C@H]3[C@H](N(C)C)C(O)=C(C(N)=O)C(=O)[C@@]3(O)C(O)=C1C2=O [Minocycline]	2 (≈ 4.37 µM)	4 (≈ 8.74 µM)	0.125 (≈ 0.273 µM)	0.0625 (≈ 0.137 µM)	0.25 (≈ 0.546 µM)	2 (≈ 4.37 µM)	2 (≈ 4.37 µM)											0.5 (≈ 1.09 µM)	
